In patent US10662193B2, “Carbazole and carboline compounds for use in the diagnosis, treatment, alleviation or prevention of disorders associated with amyloid or amyloid-like proteins” (AC IMMUNE SA, priority 2014, dated 2020):

How the values were obtained:
[1] = system: tau tangles on AD brain section; test: Assay 1: displacement of RefA on human AD brain sections (fluorescence); assay type: binding; conditions: 1 μM RefA vs. 250 μM compound
Description: (§1) Direct Binding of Compounds of this Invention to Human Alzheimer's Disease Brain Sections and/or Displacement of RefA and Compound B
(§2) Frozen sections with a thickness of […] from the amygdala of donors diagnosed with Braak stage V-VI Alzheimer's Disease (Braak, H.; Braak, E. Acta Neuropathol., 1991, 82, 239-259), were purchased from a commercial provider (Tissue Solutions) and kept at −80° C. until use.
Displacement of RefA and Compound B
Brain sections were mainly treated as described above. Test compounds were, however, incubated on the section at 250 μM in 50% ethanol for 20 min at room temperature, and then directly incubated with the fluorescent reference compounds RefA and Compound B, each at 1 μM in 50% ethanol for 20 min at room temperature. RefA and Compound B stainings were visualized using the 470 nm and 365 nm excitation filters, respectively. Images were acquired, and tangles and plaques quantified using the NIS-Element software. Only those compounds not directly staining tangles or plaques at the same wavelengths as RefA and Compound B were tested in the displacement assay.
Structure of RefA (Tago et al., J. Label. Compd. Radiopharm. 2013, DOI: 10.1002/jlcr.3133)

[2] = system: tau tangles/Aβ plaques on AD brain sections; test: Assay 1: direct staining of human Alzheimer's disease brain sections (fluorescence); assay type: binding; set-up: key to Direct staining of tau tangles/Aβ plaques on AD brain sections at 100 μM / Direct staining of tau tangles on AD brain sections at 100 μM / Direct staining of Aβ plaques on AD brain sections at 100 μM / Direct staining of tau tangles on AD brain sections (footnote a: at 250 μM): − (No); +++ (strong); ++ (good); + (weak)
Description: Assay 1 (Fluorescence Based Assay):
as §1, §2
Direct Staining of Human Alzheimer's Disease Brain Sections
Brain sections were encircled with pap pen liquid blocker to reduce the volume of solution for the different incubations. Sections were fixed for 15 min at 4° C. with 4% paraformaldehyde and washed three times 5 minutes with PBS at room temperature. […] To reduce the auto-fluorescence of the tissue, the sections were incubated in a solution of 0.1% Sudan Black (Sigma 199664) in 70% ethanol for 15 min at room temperature in the dark, washed four times for 5 minutes with PBS, and mounted using ProLong Gold Antifade reagent (Invitrogen P36930). Sections were then analyzed on the Nikon Eclipse Ti microscope to detect staining and imaged using Nikon DS-Fi2 camera and NIS-Element AR4.13.1 software.

[3] = 100 μM compound, human AD brain sections, fluorescence, cell does not say tangles or plaques
[4] = 100 μM in 50% ethanol, 20 min, "(tangles)" beside the symbol = tangles stained

| SMILES | Direct staining of tau tangles on AD brain sections at 100 μM ([2]; 100 μM compound) | Direct staining of tau tangles/Aβ plaques on AD brain sections at 100 μM [2, 3] | further results |
| --- | --- | --- | --- |
| Cn1c2ccncc2c2ccc(Nc3cnn(CCF)c3)nc21 [Example 40] | +++ (tangles) |  | Competition on AD brain section tau tangles (1 μM RefA vs. 250 μM compound) [1]: 91% |
| Cn1c2ccncc2c2ccc(Nc3ccnn3CCF)nc21 [Example 46] |  | − | Competition on AD brain section tau tangles (1 μM RefA vs. 250 μM compound) [1]: 55% |
| Cn1c2ccncc2c2ccc(Nc3cccc(NCCF)n3)nc21 [Example 78] | ++ (tangles) |  | Competition on AD brain section tau tangles (1 μM RefA vs. 250 μM compound) [1]: 91% |
| Cn1c2ccncc2c2ccc(Nc3ccn(CCF)n3)nc21 [Example 47] | ++ (tangles) |  | Competition on AD brain section tau tangles (1 μM RefA vs. 250 μM compound) [1]: 89% |
| CN1CCc2c(c3ccc(Nc4cccc(NCCF)n4)nc3n2C)C1=O [Example 81] |  | − |  |
| Cn1c2ccncc2c2ccc(Nc3cnn(CCCCF)c3)nc21 [Example 45] |  | − | Competition on AD brain section tau tangles (1 μM RefA vs. 250 μM compound) [1]: 39% |
| Cn1c2c(c3ccc(Nc4cccc(F)n4)nc31)C(=O)NCC2 [Example 184] |  |  | Direct staining of Aβ plaques on AD brain sections at 100 μM ([2]; 100 μM compound): + (plaques) |
| Cn1c2c(c3ccc(Nc4ccc(C#N)c(OCCF)c4)nc31)C(=O)NCC2 [Example 176] |  | − |  |
| COc1ccc(Nc2ccc3c4cnccc4n(C)c3n2)cc1F [Example 30] | + (tangles) + (plaques) |  | Direct staining of Aβ plaques on AD brain sections at 100 μM ([2]; 100 μM compound): + (tangles) + (plaques) |
| Cn1c2c(c3ccc(Nc4ccc(F)c(F)c4)nc31)C(=O)N(CCCN)CC2 [213 Step F] |  |  | Direct staining of tau tangles/Aβ plaques on AD brain sections at 100 μM [2, 4]: − |
| COc1cc(Nc2ccc3c4c(n(C)c3n2)CCNC4=O)ccn1 [Example 181] | + (tangles) |  |  |
| Cn1c2c(c3ccc(Nc4ccc(C#N)c(F)c4)nc31)C(=O)NCC2 [Example 179] | + (tangles) |  |  |
| Cn1c2c(c3ccc(Nc4ccc(F)c(F)c4)nc31)C(=O)N(CCO)CC2 [Example 215] |  |  | Direct staining of tau tangles/Aβ plaques on AD brain sections at 100 μM [2, 4]: − |
| Cn1ccc2c(c1=O)c1ccc(Nc3ccc(F)c(F)c3)nc1n2C [Example 194] |  | − |  |
| Fc1ccc(Nc2ccc3c(c2)[nH]c2ccncc23)cc1F [Example 37] | + (tangles) |  |  |
| OCCn1c2ccncc2c2ccc(Nc3ccc(F)c(F)c3)nc21 [Example 166] |  | − |  |
| Cn1c2c(c3ccc(Nc4ccc(N5CCOCC5)cc4)nc31)C(=O)NCC2 [Example 173] |  | − |  |
| Cn1c2ccncc2c2ccc(Nc3cccc(C(F)F)c3)nc21 [Example 35] | ++ (tangles) ++ (plaques) |  | Direct staining of Aβ plaques on AD brain sections at 100 μM ([2]; 100 μM compound): ++ (tangles) ++ (plaques) |
| Cn1c2ccncc2c2ccc(Nc3cccc(OCCOCCF)n3)nc21 [Example 56] | ++ (tangles) |  |  |

| SMILES | Direct staining of tau tangles on AD brain sections at 100 μM ([2]; 100 μM compound) | Direct staining of tau tangles/Aβ plaques on AD brain sections at 100 μM [2, 3] | further results |
| --- | --- | --- | --- |
| CN1CCc2c(c3ccc(Nc4cccc(NCCF)c4)nc3n2C)C1=O [Example 84] |  | − |  |
| Cn1c2c(c3ccc(Nc4ccc5nsnc5c4)nc31)C(=O)N(CCF)CC2 [Example 188] |  | − |  |
| Cn1c2ccncc2c2ccc(Nc3cc(CCF)ccn3)nc21 [Example 148] | ++ (tangles) |  |  |
| CN1CCc2c(c3ccc(Nc4ccc(OCCF)cn4)nc3n2C)C1=O [Example 206] |  | − |  |
| CN1CCc2c(c3ccc(Nc4ccc(F)c(O)c4)nc3n2C)C1=O [Example 203] |  | − |  |
| Cn1c2ccncc2c2ccc(Nc3ccc(C#N)c(OCCF)c3)nc21 [Example 21] |  | − |  |
| Cn1c2ccncc2c2ccc(Nc3ccc(NCCF)cn3)nc21 [Example 79] |  | − |  |
| Cn1c2ccncc2c2ccc(Nc3ccnc(OCCF)c3)nc21 [Example 58] |  |  | Direct staining of Aβ plaques on AD brain sections at 100 μM ([2]; 100 μM compound): +++ (plaques) |
| Cn1c2ccncc2c2ccc(Nc3cncc(OCCCF)c3)nc21 [Example 97] | +++ (tangles) |  |  |
| CN(C)c1cc(Nc2ccc3c4cnccc4n(C)c3n2)ccc1F [Example 41] |  | − |  |
| COc1ccc(C2C(CCC(=O)NCCCCCC(=O)N(C)C)=C/C(=C/c3[nH]c(C)cc3C)N2B(F)F)cc1 (centres unmarked) [Prep. Example 18, reference compound] |  |  | Direct staining of tau tangles/Aβ plaques on AD brain sections at 100 μM [2, 4]: − |
| Cn1c2c(c3ccc(Nc4ccc(OCCF)c(F)c4)nc31)C(=O)NCC2 [Example 199] | + (tangles) + (plaques) |  | Direct staining of Aβ plaques on AD brain sections at 100 μM ([2]; 100 μM compound): + (tangles) + (plaques) |
| Cn1c2ccncc2c2ccc(Nc3ccc(F)c(OCCF)c3)nc21 [Example 57] | ++ (tangles) |  |  |
| Cn1c2ccncc2c2ccc(Nc3cccc(SCCF)c3)nc21 [Example 43] | + (tangles) + (plaques) |  | Direct staining of Aβ plaques on AD brain sections at 100 μM ([2]; 100 μM compound): + (tangles) + (plaques) |
| COc1cc(Nc2ccc3c4cnccc4n(C)c3n2)ccc1F [Example 31] | + (tangles) + (plaques) |  | Direct staining of Aβ plaques on AD brain sections at 100 μM ([2]; 100 μM compound): + (tangles) + (plaques) |
| CN1CCc2c(c3ccc(Nc4cccc(OCCF)n4)nc3n2C)C1=O [Example 209] |  | − |  |
| Cn1c2ccncc2c2ccc(Nc3ccc(OCCF)cn3)nc21 [Example 62] | + (tangles) |  |  |
| Cn1c2ccncc2c2ccc(Nc3csc(OCCF)n3)nc21 [Example 69] | ++ (tangles) |  |  |
